Where “and” joins values, the source holds several entries; their conditions need not be identical. Identical values can stand only once.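 Each compound was tested at five concentrations against cells in 96-well plates for 48 hours. At the GI50, growth is halved. At the TGI there is no net growth.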
Columns and labels:
Experiment in all cases: DTP human tumour cell line panel, 48 h
SNB-78 CNS = tested on: SNB-78 CNS
SNB-75 CNS = tested on: SNB-75 CNS
HS 578T breast = tested on: HS 578T breast
BT-549 breast = tested on: BT-549 breast
SK-MEL-28 melanoma = tested on: SK-MEL-28 melanoma
OVCAR-3 ovarian = tested on: OVCAR-3 ovarian
CCRF-CEM leukemia = tested on: CCRF-CEM leukemia
NCI-H460 lung = tested on: NCI-H460 lung
SNB-19 CNS = tested on: SNB-19 CNS
LXFL 529 NSCLC = tested on: LXFL 529 NSCLC

**Q.** `COc1cccc2c1[C@H]1CO[C@H]3C4C[C@H](C(=O)O)C([C@@H](C2)N13)N4C` (stereo partly drawn) was tested. Which GI50 (SNB-78 CNS) did it give?
**A.** The GI50 was 0.388 µM.

**Q.** And the TGI (SNB-78 CNS)?
**A.** The TGI was 9.27 µM and > 30.5 µM.

**Q.** What about the GI50 (SNB-75 CNS) of the same compound?
**A.** The GI50 was 0.809 µM.

**Q.** And the TGI (SNB-75 CNS)?
**A.** Its TGI is 4.85 µM and 3.53 µM.

**Q.** What about the TGI (HS 578T breast) of the same compound?
**A.** The TGI was 0.656 µM.

**Q.** And the TGI (BT-549 breast)?
**A.** Its TGI is 0.339 µM.

**Q.** And the GI50 (SK-MEL-28 melanoma)?
**A.** The GI50 was 0.621 µM.

**Q.** What about the TGI (SK-MEL-28 melanoma) of the same compound?
**A.** Its TGI is 4.91 µM and 1.65 µM.

**Q.** And the TGI (OVCAR-3 ovarian)?
**A.** Its TGI is 2.99 µM and 3.94 µM.

**Q.** And the GI50 (CCRF-CEM leukemia)?
**A.** Its GI50 is 2.42 µM and 1.6 µM.

**Q.** And the GI50 (NCI-H460 lung)?
**A.** The GI50 was 1.36 µM.

**Q.** And the TGI (NCI-H460 lung)?
**A.** The TGI was greater than 38.2 µM.

**Q.** And the GI50 (SNB-19 CNS)?
**A.** Its GI50 is 3.81 µM.

**Q.** And the TGI (SNB-19 CNS)?
**A.** Its TGI is greater than 100 µM.

**Q.** And the TGI (LXFL 529 NSCLC)?
**A.** Its TGI is 4.98 µM.

**Q.** How did the TGI (SNB-78 CNS) turn out when `O=C(O)COc1ccc(C(=O)/C(SS/C(C(=O)c2ccc(OCC(=O)O)c(Cl)c2Cl)=C2\C=C(c3ccc(Br)cc3)SS2)=C2/C=C(c3ccc(Br)cc3)SS2)c(Cl)c1Cl` was run?
**A.** The TGI was 36.5 µM.

**Q.** And the TGI (SNB-75 CNS)?
**A.** Its TGI is 45.4 µM.

**Q.** And the TGI (HS 578T breast)?
**A.** The TGI was 17.4 µM.

**Q.** And the TGI (BT-549 breast)?
**A.** The TGI was 67.3 µM.

**Q.** And the TGI (SK-MEL-28 melanoma)?
**A.** The TGI was greater than 100 µM.

**Q.** What about the TGI (OVCAR-3 ovarian) of the same compound?
**A.** Its TGI is 21.7 µM.

**Q.** What about the TGI (CCRF-CEM leukemia) of the same compound?
**A.** The TGI was 17 µM.

**Q.** And the TGI (NCI-H460 lung)?
**A.** The TGI was greater than 71.8 µM.

**Q.** What about the TGI (SNB-19 CNS) of the same compound?
**A.** Its TGI is 33.1 µM.

**Q.** And the TGI (LXFL 529 NSCLC)?
**A.** The TGI was 8.98 µM.

**Q.** Which TGI (SNB-78 CNS) does the source give for `Cn1nnc2c(C(N)=O)ncn2c1=O` here?
**A.** Its TGI is greater than 100 µM.

**Q.** And the TGI (SNB-75 CNS)?
**A.** Its TGI is greater than 100 µM.

**Q.** And the TGI (HS 578T breast)?
**A.** The TGI was greater than 100 µM.

**Q.** What about the TGI (BT-549 breast) of the same compound?
**A.** The TGI was greater than 100 µM.

**Q.** What about the TGI (SK-MEL-28 melanoma) of the same compound?
**A.** Its TGI is greater than 100 µM.

**Q.** What about the TGI (OVCAR-3 ovarian) of the same compound?
**A.** The TGI was greater than 100 µM.

**Q.** And the TGI (CCRF-CEM leukemia)?
**A.** Its TGI is greater than 100 µM.

**Q.** What about the TGI (NCI-H460 lung) of the same compound?
**A.** Its TGI is greater than 100 µM.

**Q.** And the TGI (SNB-19 CNS)?
**A.** The TGI was greater than 100 µM.

**Q.** And the TGI (LXFL 529 NSCLC)?
**A.** The TGI was greater than 100 µM.

**Q.** Which results are given for `COC/N=C(/N)NC#N`?
**A.** TGI (SNB-78 CNS): > 100 µM; TGI (SNB-75 CNS): > 100 µM; TGI (SK-MEL-28 melanoma): > 100 µM; TGI (OVCAR-3 ovarian): > 100 µM; TGI (CCRF-CEM leukemia): > 100 µM; TGI (NCI-H460 lung): > 100 µM; TGI (SNB-19 CNS): > 100 µM; TGI (LXFL 529 NSCLC): > 100 µM
